What was measured:
PD-1/PD-L1 = PD-1/PD-L1 (Homo sapiens (Human), UniProt Q9NZQ7); assay: PD-1/PD-L1 Binding Assay (Alphascreen)
How it was run: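 PD-1/PD-L1 binding detected by anti-6×His acceptor and streptavidin donor beads after 120 min in the dark at 25 °C. Beforehand, the two proteins were incubated 15 min at 25 °C with inhibitor at 0.015–300 nM (1% DMSO). IC50 comes from a log concentration–response curve.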

[1] = Pharmacokinetic Assay, single oral dose 5 mg/kg (Table 12); format: in vivo; settings: mouse, plasma concentration, C57 female mice, single oral dose 5 mg/kg
How it was run: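 Adult female C57 mice (n=3) got one intragastric dose of 5 mg/kg in 15% DMSO, 10% Kolliphor HS 15, 75% saline. Retro-orbital blood was taken at 30 min, 2 h and 4 h into K2-EDTA. Plasma levels were measured by LC-MS/MS.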

Chain of PD-1/PD-L1 (Q9NZQ7 19-238): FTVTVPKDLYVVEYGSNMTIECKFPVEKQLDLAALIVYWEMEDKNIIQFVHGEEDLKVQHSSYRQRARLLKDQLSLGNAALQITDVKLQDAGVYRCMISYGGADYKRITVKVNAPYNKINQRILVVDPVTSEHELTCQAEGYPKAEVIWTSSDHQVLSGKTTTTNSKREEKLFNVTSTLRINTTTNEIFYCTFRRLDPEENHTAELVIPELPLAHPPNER

Row | Compound | IC50 (PD-1/PD-L1; range symbols) | concentration at 0.5 h [1] | concentration at 2 h [1] | concentration at 4 h [1] | IC50 (PD-1/PD-L1; numeric values)
1 | Cc1c(-c2nc3c(o2)CCN(CCC(F)(F)F)C3)cccc1-c1cccc(-c2nc3cc(CN4CCC[C@H]4C(=O)O)c(OC(F)F)cc3o2)c1C [Example 198, ((6-(difluoromethoxy)-2-(2,2′-dimethyl-3′-(5-(3,3,3-trifluoropropyl)-4,5,6,7-tetrahydrooxazolo[4,5-c]pyridin-2-yl)-[1,1′-biphenyl]-3-yl)benzo[d]oxazol-5-yl)methyl)proline] | > 50 nM | 674 ng/mL | 1440 ng/mL | 1100 ng/mL | –
2 | Cc1c(-c2nc3c(o2)CCN(CC(F)F)C3)cccc1-c1cccc(-c2nc3cc(CN4CCC[C@H]4C(=O)O)c(OC(F)F)cc3o2)c1C [Example 201, ((2-(3′-(5-(2,2-difluoroethyl)-4,5,6,7-tetrahydrooxazolo[4,5-c]pyridin-2-yl)-2,2′-dimethyl-[1,1′-biphenyl]-3-yl)-6-(difluoromethoxy)benzo[d]oxazol-5-yl)methyl)proline] | > 50 nM | 428 ng/mL | 792 ng/mL | 527 ng/mL | –
3 | Cc1c(-c2nc3c(o2)CCOC3)cccc1-c1cccc(-c2nc3cc(CN4CCC[C@H]4C(=O)O)c(OC(F)F)cc3o2)c1C [Example 203, ((6-(difluoromethoxy)-2-(3′-(6,7-dihydro-4H-pyrano[3,4-d]oxazol-2-yl)-2,2′-dimethyl-[1,1′-biphenyl]-3-yl)benzo[d]oxazol-5-yl)methyl)proline] | – | 819 ng/mL | 1030 ng/mL | 833 ng/mL | 12 nM
4 | Cc1c(-c2nc3c(o2)CCC3)cccc1-c1cccc(-c2nc3cc(CN4CCC[C@H]4C(=O)O)c(OC(F)F)cc3o2)c1C [Example 204, ((6-(difluoromethoxy)-2-(3′-(5,6-dihydro-4H-cyclopenta[d]oxazol-2-yl)-2,2′-dimethyl-[1,1′-biphenyl]-3-yl)benzo[d]oxazol-5-yl)methyl)proline] | 0.1 to 5 nM | 740 ng/mL | 872 ng/mL | 820 ng/mL | –
5 | Cc1c(-c2nc3c(o2)CCCC3)cccc1-c1cccc(-c2nc3cc(CN4CCC[C@H]4C(=O)O)c(OC(F)F)cc3o2)c1C [Example 205, ((6-(difluoromethoxy)-2-(2,2′-dimethyl-3′-(4,5,6,7-tetrahydrobenzo[d]oxazol-2-yl)-[1,1′-biphenyl]-3-yl)benzo[d]oxazol-5-yl)methyl)proline] | 0.1 to 5 nM | 1000 ng/mL | 1440 ng/mL | 1420 ng/mL | –
6 | Cc1c(COc2cc(OCc3cncc(OC(F)F)c3)c(CN3CCC(F)C3)cc2Cl)cccc1-c1cccc(-c2nc3cc(CN4CCC[C@H]4C(=O)O)c(OC(F)F)cc3o2)c1C (stereo partly drawn) [Example 209, ((2-(3′-((2-chloro-5-((5-(difluoromethoxy)pyridin-3-yl)methoxy)-4-((3-fluoropyrrolidin-1-yl)methyl)phenoxy)methyl)-2,2′-dimethyl-[1,1′-biphenyl]-3-yl)-6-(difluoromethoxy)benzo[d]oxazol-5-yl)methyl)-L-proline] | – | 21.4 ng/mL | 54.9 ng/mL | 19.2 ng/mL | 1.4 nM
7 | COC1CCN(Cc2ccc(-c3cccc(-c4cccc(-c5nc6cc(CN7CCC[C@H]7C(=O)O)c(OC(F)F)cc6o5)c4C)c3C)cc2)C1 (stereo partly drawn) [Example 227, ((6-(difluoromethoxy)-2-(4″-((3-methoxypyrrolidin-1-yl)methyl)-2,2′-dimethyl-[1,1′:3′,1″-terphenyl]-3-yl)benzo[d]oxazol-5-yl)methyl)-L-proline] | – | 36.9 ng/mL | 149 ng/mL | 114 ng/mL | 4.1 nM
8 | Cc1c(-c2nc3cc(CN4CCC[C@H]4C(=O)O)c(OC(F)F)cc3o2)cccc1-c1cccc(-c2ccc(CN3CCCC3)cc2Cl)c1C [Example 231, ((2-(2″-chloro-2,2′-dimethyl-4″-(pyrrolidin-1-ylmethyl)-[1,1′:3′,1″-terphenyl]-3-yl)-6-(difluoromethoxy)benzo[d]oxazol-5-yl)methyl)-L-proline] | – | 36.9 ng/mL | 160 ng/mL | 156 ng/mL | 78 nM
9 | Cc1c(-c2ccc(CN3CCCC3)c(C(F)(F)F)c2)cccc1-c1cccc(-c2nc3cc(CN4CCC[C@H]4C(=O)O)c(OC(F)F)cc3o2)c1C [Example 233, ((6-(difluoromethoxy)-2-(2,2′-dimethyl-4″- (pyrrolidin-1-ylmethyl)-3″-(trifluoromethyl)-[1,1′:3′,1″-terphenyl]-3-yl)benzo[d]oxazol-5-yl)methyl)-L-proline] | – | 143 ng/mL | 322 ng/mL | 296 ng/mL | 41 nM
10 | Cc1c(-c2ccc(CN3CC(C)(C)C3)c(F)c2)cccc1-c1cccc(-c2nc3cc(CN4CCC[C@H]4C(=O)O)c(OC(F)F)cc3o2)c1C [Example 237, ((6-(difluoromethoxy)-2-(4″-((3,3-dimethylazetidin-1-yl)methyl)-3″-fluoro-2,2′-dimethyl-[1,1′:3′,1″-terphenyl]-3-yl)benzo[d]oxazol-5-yl)methyl)-L-proline] | – | 58.5 ng/mL | 178 ng/mL | 186 ng/mL | 2.7 nM
11 | Cc1c(-c2ccc(CN3Cc4ccccc4C3)c(F)c2)cccc1-c1cccc(-c2nc3cc(CN4CCC[C@H]4C(=O)O)c(OC(F)F)cc3o2)c1C [Example 241, ((6-(difluoromethoxy)-2-(3″-fluoro-4″- (isoindolin-2-ylmethyl)-2,2′-dimethyl-[1,1′:3′,1″-terphenyl]-3-yl)benzo[d]oxazol-5-yl)methyl)proline] | 5 to 50 nM | 102 ng/mL | 234 ng/mL | 294 ng/mL | –
12 | Cc1c(-c2ccc(CN3CCC(F)C3)cc2)cccc1-c1cccc(-c2nc3cc(CN4CCC[C@H]4C(=O)O)c(OC(F)F)cc3o2)c1C (stereo partly drawn) [Example 242, ((6-(difluoromethoxy)-2-(4″-((3-fluoropyrrolidin-1-yl)methyl)-2,2′-dimethyl-[1,1′:3′,1″-terphenyl]-3-yl)benzo[d]oxazol-5-yl)methyl)proline] | 0.1 to 5 nM | 90.4 ng/mL | 223 ng/mL | 202 ng/mL | –
13 | Cc1c(-c2ccc(CN3CCCC3)c(C#N)c2)cccc1-c1cccc(-c2nc3cc(CN4CCC[C@H]4C(=O)O)c(OC(F)F)cc3o2)c1C [Example 245, ((2-(3″-cyano-2,2′-dimethyl-4″-(pyrrolidin-1-ylmethyl)-[1,1′:3′,1″-terphenyl]-3-yl)-6-(difluoromethoxy)benzo[d]oxazol-5-yl)methyl)-L-proline] | – | 101 ng/mL | 237 ng/mL | 191 ng/mL | 3.8 nM
14 | COc1nc(-c2cccc(-c3cccc(-c4nc5cc(CN6CCC[C@H]6C(=O)O)c(OC(F)F)cc5o4)c3C)c2C)ccc1CN1CC[C@H](C)C1 [Example 246, ((6-(difluoromethoxy)-2-(3′-(6-methoxy-5-(((S)-3-methylpyrrolidin-1-yl)methyl)pyridin-2-yl)-2,2′-dimethyl-[1,1′-biphenyl]-3-yl)benzo[d]oxazol-5-yl)methyl)-L-proline] | – | 87.2 ng/mL | 261 ng/mL | 285 ng/mL | 1.8 nM
15 | Cc1c(-c2ccc(CN3CC[C@@H](c4ccccc4)C3)c(F)c2)cccc1-c1cccc(-c2nc3cc(CN4CCC[C@H]4C(=O)O)c(OC(F)F)cc3o2)c1C [Example 248, ((6-(difluoromethoxy)-2-(3″-fluoro-2,2′-dimethyl-4″-(((S)-3-phenylpyrrolidin-1-yl)methyl)-[1,1′:3′,1″-terphenyl]-3-yl)benzo[d]oxazol-5-yl)methyl)proline] | 5 to 50 nM | 89 ng/mL | 271 ng/mL | 369 ng/mL | –
16 | Cc1c(-c2ccc(CN3CC[C@H](COCc4ccccc4)C3)c(F)c2)cccc1-c1cccc(-c2nc3cc(CN4CCC[C@H]4C(=O)O)c(OC(F)F)cc3o2)c1C [Example 252, ((2-(4″-(((S)-3-((benzyloxy)methyl)pyrrolidin-1-yl)methyl)-3″-fluoro-2,2′-dimethyl-[1,1′:3′,1″- terphenyl]-3-yl)-6-(difluoromethoxy)benzo[d]oxazol-5-yl)methyl)proline] | 0.1 to 5 nM | 694 ng/mL | 2870 ng/mL | 4150 ng/mL | –
17 | Cc1c(-c2nc3cc(CN4CCC[C@H]4C(=O)O)c(OC(F)F)cc3o2)cccc1-c1cccc(-c2ccc(CN3CCCC3)cc2F)c1C [Example 253, ((6-(difluoromethoxy)-2-(2″-fluoro-2,2′-dimethyl-4″-(pyrrolidin-1-ylmethyl)-[1,1′:3′,1″- terphenyl]-3-yl)benzo[d]oxazol-5-yl)methyl)-L-proline] | – | 42.3 ng/mL | 199 ng/mL | 181 ng/mL | 4.7 nM
18 | COc1nc(-c2cccc(-c3cccc(-c4nc5cc(CN6CCC[C@H]6C(=O)O)c(OC(F)F)cc5o4)c3C)c2C)ccc1CN1CC[C@@H](C)C1 [Example 272, ((6-(difluoromethoxy)-2-(3′-(6-methoxy-5-(((R)-3-methylpyrrolidin-1-yl)methyl)pyridin-2-yl)-2,2′-dimethyl-[1,1′-biphenyl]-3-yl)benzo[d]oxazol-5-yl)methyl)-L-proline] | – | 66.1 ng/mL | 198 ng/mL | 141 ng/mL | 1.9 nM
